Results published in paper PMC9865501, “Design and Synthesis of Scopoletin Sulfonate Derivatives as Potential Insecticidal Agents” (Molecules, 2023).
In brackets after ≈: the same amount, converted by molar mass. Read-outs that look alike come from different tables or passages of the source.

Tests used:
[1] = target: T1, AChE (Electrophorus electricus, UniProt O42275); assay: In vitro AChE inhibition (ELISA kit); assay type: biochemical, electric eels
T1 construct: purchased Sigma–Aldrich Chemie GmbH (Buchs, Switzerland)
T1 sequence (O42275 24-633): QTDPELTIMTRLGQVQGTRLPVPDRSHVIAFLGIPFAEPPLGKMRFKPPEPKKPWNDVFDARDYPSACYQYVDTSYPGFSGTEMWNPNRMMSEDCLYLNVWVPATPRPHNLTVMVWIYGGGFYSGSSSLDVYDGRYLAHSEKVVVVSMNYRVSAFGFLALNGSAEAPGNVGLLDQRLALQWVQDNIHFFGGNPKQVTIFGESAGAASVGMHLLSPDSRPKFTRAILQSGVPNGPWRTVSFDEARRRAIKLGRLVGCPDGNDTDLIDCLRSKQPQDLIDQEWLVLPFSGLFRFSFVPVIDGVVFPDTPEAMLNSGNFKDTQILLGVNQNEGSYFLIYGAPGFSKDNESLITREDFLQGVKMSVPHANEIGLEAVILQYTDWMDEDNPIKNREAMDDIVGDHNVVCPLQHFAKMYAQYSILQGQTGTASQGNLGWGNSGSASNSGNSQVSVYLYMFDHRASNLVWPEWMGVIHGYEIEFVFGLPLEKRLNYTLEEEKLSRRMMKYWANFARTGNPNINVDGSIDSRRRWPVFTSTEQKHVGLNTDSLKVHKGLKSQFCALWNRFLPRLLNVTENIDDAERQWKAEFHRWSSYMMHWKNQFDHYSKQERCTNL
Method: The effects of the title compounds on the in vitro AChE activity were evaluated using ELISA technology. AChE derived from electric eels was purchased from Sigma–Aldrich Chemie GmbH (Buchs, Switzerland). Briefly, the AChE was preincubated with different concentrations (500, 250, 125, 62.5, 31.25, 15.625, and 7.8125 μg/mL) of the compounds in PBS solution. Then, the AChE activities after incubation were measured using the corresponding ELISA kit according to the manufacturer’s instructions (Jiancheng, Nanjing, China). The detection was performed using a multifunctional microplate reader (SpectraMax® M2e, Thermo Scientific, Waltham, MA, USA).

[2] = Toxicity to brine shrimp Artemia; assay type: in vivo, Artemia salina; conditions: Artemia salina (brine shrimp), in vivo, other: immersion in test solution
Method: The toxicity of the title compounds to the brine shrimp A. salina was evaluated according to the reported method. […] Subsequently, approximately 50 hatched (10 h instar) brine shrimp were transferred into each pore of a 24-well plate filled with the test solutions. Finally, the brine shrimp were reared in an illumination incubator (28 ± 1 °C, 12 h light and 12 h dark alternatively) for 24 h. DMSO—1% Tween 20 was used as a blank control. Each treatment was conducted in triplicate. The dead insects were recorded under a stereoscope, and the corrected mortalities of A. salina treated with the compounds were calculated.

[3] = system: T. cinnabarinus; assay: Acaricidal activity against T. cinnabarinus (leaf spray on broad bean, 72 h); assay type: in vivo, Tetranychus cinnabarinus; conditions: for LC50: Tetranychus cinnabarinus, 72 h; for acaricidal toxicity relative to compound 5: compared with compound 5
Method: An acaricidal activity assay of the test compounds against mites was conducted according to procedures outlined in the literature. […] The stock solution was then diluted to a series of working concentrations with 1% Tween 80 to obtain the test solutions. Subsequently, the leaves of two-leaf-stage broad beans were inoculated with 150–200 female adult T. cinnabarinus mites and reared in a greenhouse (26 ± 1 °C, 75–80% RH, 16 h light and 8 h dark alternatively) for 8 h. The test solution of the compound was then evenly sprayed on these leaves, which were then cultivated in the greenhouse for 72 h. In the blank control group, Tween 80 (1%) was used instead of the treatment solution. Cyetpyrafen (CAS NO. 1253429-01-4) was used as a positive control. Each treatment was repeated three times. The dead insects were recorded under a stereoscope, and the corrected mortalities of mites treated with the compounds were calculated.

[4] = read-out: Lethal activity to Artemia LC50
[5] = 12 h, read-out: Lethal activity to Artemia LC50
[6] = Table S1, read-out: Acaricidal activity LC50
[7] = main text and Figure 5, read-out: LC50 against T. cinnabarinus

| Compound | IC50 [1] [µM] | LC50 at 6 h [2, 4] [µg/mL] | LC50 at 12 h [2, 5] [µg/mL] | LC50 [3, 6] [µg/mL] | LC50 [3, 7] [µg/mL] | acaricidal toxicity relative to compound 5 [3] | LC50 at 12 h ([2]; abstract (equals the 12 h value), read-out: LC50 against A. salina) [µg/mL] |
| --- | --- | --- | --- | --- | --- | --- | --- |
| COc1cc2ccc(=O)oc2cc1OS(=O)(=O)c1ccc([N+](=O)[O-])cc1 [Compound 4g] | 353 | 46.7 (≈ 124 µM) | 25.6 (≈ 67.8 µM) | 183 (≈ 485 µM) |  |  |  |
| COc1cc2cc(-c3ccc(F)cc3)c(=O)oc2cc1OS(=O)(=O)c1cc(Cl)c(Cl)cc1Cl [Compound 5h] | 198 | 106 (≈ 200 µM) | 57.6 (≈ 109 µM) | 96 (≈ 181 µM) |  |  |  |
| COc1cc2cc(-c3ccc(F)cc3)c(=O)oc2cc1OS(=O)(=O)c1ccc(C(F)(F)F)cc1 [Compound 5f] | 242 | 71.5 (≈ 145 µM) | 39.9 (≈ 80.7 µM) | 104 (≈ 210 µM) |  |  |  |
| COc1cc2ccc(=O)oc2cc1OS(=O)(=O)c1cccs1 [Compound 4i] | 432 | 76.5 (≈ 226 µM) | 45.1 (≈ 133 µM) | 489 (≈ 1450 µM) |  |  |  |
| COc1cc2ccc(=O)oc2cc1OS(=O)(=O)c1ccc(Cl)cc1 [Compound 4d] | 222 | 33.6 (≈ 91.6 µM) | 16 (≈ 43.6 µM) | 529 (≈ 1440 µM) |  |  |  |
| COc1cc2cc(C(C)=O)c(=O)oc2cc1O [Compound 6, 3-acetyl-7-hydroxy-6-methoxy-2H-chromen-2-one] | 395 | 56.5 (≈ 241 µM) | 35.6 (≈ 152 µM) | 81 (≈ 346 µM) | 81 to 116 (≈ 346 to 495 µM) |  |  |
| COc1cc2ccc(=O)oc2cc1OS(=O)(=O)c1ccccc1 [Compound 4a] | 431 | 47 (≈ 141 µM) | 29.1 (≈ 87.6 µM) | 448 (≈ 1350 µM) |  |  |  |
| COc1ccc(S(=O)(=O)Oc2cc3oc(=O)c(-c4ccc(F)cc4)cc3cc2OC)cc1 [Compound 5b] | 336 | 94.5 (≈ 207 µM) | 36.2 (≈ 79.3 µM) | 338 (≈ 741 µM) |  |  |  |
| COc1ccc(S(=O)(=O)Oc2cc3oc(=O)ccc3cc2OC)cc1 [Compound 4b] | 304 | 38.6 (≈ 107 µM) | 18.2 (≈ 50.2 µM) | 209 (≈ 577 µM) |  |  |  |
| COc1cc2cc(C(=O)Nc3ccc(Br)cc3)c(=O)oc2cc1OS(=O)(=O)c1ccccc1 [Compound 7a] | 221 | 57.6 (≈ 109 µM) | 33.6 (≈ 63.4 µM) | 117 (≈ 221 µM) |  |  |  |
| COc1cc2cc(C(=O)Nc3ccc(Br)cc3)c(=O)oc2cc1OS(=O)(=O)c1ccc(Cl)cc1 [Compound 7d] | 174 | 54.2 (≈ 96 µM) | 39.4 (≈ 69.8 µM) | 89 (≈ 158 µM) |  |  |  |
| COc1cc2cc(-c3ccc(F)cc3)c(=O)oc2cc1OS(=O)(=O)c1ccc2ccccc2c1 [Compound 5j] | 115 | 77.9 (≈ 163 µM) | 29.7 (≈ 62.3 µM) |  | 20 (≈ 42 µM) | ~5 times |  |
| COc1cc2ccc(=O)oc2cc1OS(=O)(=O)c1ccc2ccccc2c1 [Compound 4j] | 148 | 13.6 (≈ 35.6 µM) |  |  | 93 (≈ 243 µM) |  | 9.36 (≈ 24.5 µM) |
| COc1cc2cc(-c3ccc(F)cc3)c(=O)oc2cc1OS(=O)(=O)c1cccs1 [Compound 5i] | 255 | 99.8 (≈ 231 µM) | 56.7 (≈ 131 µM) | 73 (≈ 169 µM) |  | approximately 2 times |  |
